Converted amounts (≈) assume the structure as drawn.
Assays:
[1] = result in words, compared with 20(S)-camptothecin; cited from earlier work
[2] = MTD in Swiss albino mice (single dose); conditions: mouse, in vivo, 14 days observation
Method: 1. MTD in Swiss albino mice:
Each Swiss Albino mouse is injected with a single does of the test compound on a day designated as Day 1: Doses that were tested are 400, 200, 100, 50, 25, 12.5, 8.3, 6.25 and 3.13 mg/kg body weight. […] (As per the protocol followed by the U.S. National Cancer Institute)

[3] = Solubility by HPLC method; assay type: physicochemical; conditions: aqueous buffer, 0.1M sodium acetate buffer pH 5.0, 24 hours, room temperature
Method: 4. Solubility by HPLC method:
Excess of compound was soaked in 0.5 ml of 0.1M sodium acetate buffer at pH 5.0 for 24 hours at room temperature. The solution was filtered through 0.45 micron PVDF syringe filter (Gelman Sciences). The filtrate was injected into HPLC at different volumes (10 & 20 µl). Chromatograms were recorded. Responses recorded were extrapolated from the calibration curve and the solubility of the compound was calculated. (J. Med. Chem., 1995; 38: 400)

[4] = Solubility by routine method; assay type: physicochemical; conditions: deionized water, 37°C
Method: 5. Solubility by routine method:
Compound was suspended in 5 ml of deionized water and heated to 37°C. for 10 min. Then, the solution was filtered and the filtrate was evaporated to drying using methanol and the solid residue was weighed.

Pharmacokinetics at MTD = assay type: in vivo, Swiss albino mice; conditions: mouse, ip, intraperitoneal, plasma
Method: 3. Pharmacokinetics at MTD:
All studies were carried out in Swiss albino mice in the weight range 35-40 g. The animals were fasted overnight prior to dosage of the drug and were fed 3 hours after dosing. The animals were dosed intraperitonially as a solution in DMSO:water (50:50; v/v). Blood samples were drawn from orbital sinus at 1, 2, 4, 6 and 8 hours after administration of the dose into heparinized tubes, centrifuged at 13000 RPM for 10 min. Plasma samples were separated and analyzed by HPLC. To 50 µl of the sample, 100 µl of chilled acidified methanol was added and mixed to precipitate proteins. The sample was centrifuged at 13,000 RPM for 10 min. 100 µl of supernatant was made up to 200 µl with methanol:water (50:50; v/v) and 100 µl was injected on HPLC. Peak area of the drug was used for quantification. Calibration, control and recovery samples were prepared by spiking 50 µl of blank plasma with known amounts of the drug and processed in the same manner as the samples. (J. Natl. Cancer Inst., 1996; 88:817-824).

ACHN = assay: In vitro activity after 1 hour exposure (Sulforhodamine B); assay type: cell-based; conditions: Homo sapiens, 1 hour exposure then 48 hours drug-free
Method: (§1) 6. In vitro activity after 1 hour exposure:
(§2) Grow the cells in 15 ml of Complete Medium (RPM1-1640 with 10% Fetal bovine serum and 0.2% NaHCO3) for 3-5 days to obtain a cell number of 10^6 cells/flask. The medium is removed and the attached cells are washed with Phosphate Buffered Saline (PBS). 1 ml of 0.1% Trypsin-EDTA is added and incubated for 5 min at 37°C. Tap the flasks gently and add 5 ml of complete medium. Remove cell suspension and centrifuge at 2000 rpm for 5 min. Discard the supernatant and suspend the pellet in 5 ml of complete medium. Count the cell number in a haemocytometer. Dilute the cell suspension to 10,000 cells/100 µl in complete medium. Plate out 100 µl of cell suspension in each of 96 well microtitre plate and incubate for 24 hrs at 37°C. and 5% CO2. Terminate the reference blank (plated out separately) with 25 µl of 50% cold Trichloroacetic acid (TCA). Incubate for 1 hour at 4°C. Wash the plate (five times) with deionized water. Air dry and preserve the plate at 4°C. for determination of T0 value. Prepare suitable dilution of the test compound in complete medium and add 100 µl to each well to maintain the final concentration ranging between 10^-4M and 10^-8M. Incubate for 1 hr at 37°C. and 5% CO2. Centrifuge the microtitre plate at 1000 rpm for 5 min. Remove the supernatant. Wash the cells twice with 100 µl of PBS to remove the traces of test compound. Add 200 µl of complete medium to each well and incubate for 48 hours at 37°C. and 5% CO2. Terminate the cell growth with the addition of 50 µl of 50% cold TCA. Incubate the plate for 1 hr at 4°C. Wash the plates with deionized water (five times) and air dry. Add 100 µl of Sulforhodamine B solution (0.4% in 1% acetic acid) to each well. Keep at room temperature for 15 minutes. Wash (five times) with 1% acetic acid and air dry. Add 100 µl of 10mM Trizma base (Sigma), shake gently on plate shaker for 15 minutes and read the optical density at 490 nm in Spectrophotometric plate reader. (as per the protocol followed by the U.S. National Cancer Institute.

DU-145 = assay: as above; assay type: cell-based; conditions: Homo sapiens; DU-145, 1 hour exposure then 48 hours drug-free
Method: as §1, §2

HOP-62 = assay: as above; assay type: cell-based; conditions: Homo sapiens; HOP-62, 1 hour exposure then 48 hours drug-free
Method: as §1, §2

MCF-7/ADR = assay: as above; assay type: cell-based; conditions: Homo sapiens, NCI/ADR-RES, 1 hour exposure then 48 hours drug-free
Method: as §1, §2

OVCAR-8 = assay: as above; assay type: cell-based; conditions: Homo sapiens; OVCAR-8, 1 hour exposure then 48 hours drug-free
Method: as §1, §2

SF-268 = assay: as above; assay type: cell-based; conditions: Homo sapiens
Method: as §1, §2

UACC-62 = assay: as above; assay type: cell-based; conditions: Homo sapiens; UACC-62, 1 hour exposure then 48 hours drug-free
Method: as §1, §2

[5] = tested on: NCI's 60 human tumor cell line assay; assay: cells; assay type: cell-based; conditions: 60 cell, 48 h, read-out: IC50 (mean GI50 against NCI's 60 human tumor cell line assay)
Method: (§3) Each test compound was screened against a battery of 60 human cell lines obtained from eight organs. In a typical procedure, the cell suspensions that were diluted according to the particular cell type and the expected target cell density (5000-40,000 cells per well based on cell growth characteristics) were added into 96-well microtiter plates. Inoculates were allowed a preincubation period of 24h at 37°C. for stabilization. Dilutions at twice the intended test concentrations were added at time zero in 100-µl aliquots to microtiter plate wells. Usually test compounds were evaluated at five 10-fold dilutions. The highest well concentration used in the test is 10^-4M. The cells are then incubated in the presence of drug (the test compound) for further 48h in 5% CO2 atmosphere and 100% humidity. At the end of this time, the adherent cells are fixed to the plate by means of trichloroacetic acid, and after a number of washes, the cell layer is treated with the protein stain Sulforhodamine B. The optical density which is proportional to protein mass, is then read by automated spectrophotometric plate readers at a wavelength of 515 nm. Readings are transferred to a microcomputer and final reports are generated using especially developed software.

MOLT 4 = assay: NCI in vitro 60 human tumor cell line assay; assay type: cell-based; conditions: MOLT-4, 48 h, read-out: Total Growth Inhibition (TGI)
Method: as §3

SF 295 = assay: NCI in vitro 60 human tumor cell line assay; assay type: cell-based; conditions: SF-295, 48 h, read-out: Total Growth Inhibition (TGI)
Method: as §3

U 251 = assay: NCI in vitro 60 human tumor cell line assay; assay type: cell-based; conditions: U-251, 48 h, read-out: Total Growth Inhibition (TGI)
Method: as §3

MCF 7 = assay: NCI in vitro 60 human tumor cell line assay; assay type: cell-based; conditions: MCF7, 48 h, read-out: Total Growth Inhibition (TGI)
Method: as §3

HT 29 = assay: NCI in vitro 60 human tumor cell line assay; assay type: cell-based; conditions: Homo sapiens, HT-29, 48 h, read-out: Total Growth Inhibition (TGI)
Method: as §3

## 5-hydroxymethyl camptothecin
[1]
  anti-tumor activity: reduced anti-tumor activity

## CCOC1c2cc3c(O)cccc3nc2-c2cc3c(c(=O)n21)COC(=O)[C@]3(O)CC (stereo partly drawn) [Example 11, 5-Ethoxy-9-hydroxycamptothecin]
[2]; intravenous
  MTD at 336 h: 100 mg/kg
[2]; ip, intraperitoneal
  MTD at 336 h: 400 mg/kg
[3]
  solubility at 24 h: 170 µg/mL (≈ 416 µM)
[4]
  solubility at 10 min: < 1000 µg/mL
Pharmacokinetics at MTD; DMSO:water (50:50), read-out: AUC0-1
  AUC(0-t): 18.5 ± 2.1 µM·h
Pharmacokinetics at MTD
  Cmax: 6.95 ± 1.2 µM
  Tmax: 1 h
  half-life: 1.92 ± 0.4 h
  k el: 0.000103 s⁻¹
ACHN
  GI50: 0.55 µM
DU-145
  GI50: 0.35 µM
HOP-62
  GI50: 6 µM
MCF-7/ADR
  GI50: 1.5 µM
OVCAR-8
  GI50: 4.5 µM
SF-268
  GI50: 6 µM
UACC-62
  GI50: 40 µM
[5]
  mean GI50: 6.68 µM

## CC[C@@]1(O)C(=O)OCc2c1cc1n(c2=O)C(OCC(F)(F)F)c2cc3ccccc3nc2-1 (stereo partly drawn) [Example 25, 5-trifluoroethoxycamptothecin]
[5]
  mean GI50: 1.82 µM
MOLT 4
  IC (TGI): 3 µM
SF 295
  IC (TGI): 2.15 µM
U 251
  IC (TGI): 3.57 µM
MCF 7
  IC (TGI): 9.2 µM
HT 29
  IC (TGI): 7.9 µM

From patent EP0847397B1, “WATER-SOLUBLE C-RING ANALOGUES OF 20 (S)-CAMPTOTHECIN” (DR. REDDY'S RESEARCH FOUNDATION, priority 1996, dated 1997)
